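Interpolation was linear, between the two tested concentrations surrounding the appropriate level; five concentrations were tested over 48 hours in 96-well plates. Here, GI50 denotes the concentration required for 50% inhibition of growth. TGI: concentration producing complete growth inhibition.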
Legend:
Test in all cases: inhibition of tumour cell growth, NCI panel, 48 h
[1] = test system: KM12 colon
[2] = test system: A549 NSCLC
[3] = test system: OVCAR-3 ovarian
[4] = test system: RXF 393 renal
[5] = test system: CCRF-CEM leukemia
[6] = test system: PC-3 prostate
[7] = test system: HCC-2998 colon
[8] = test system: K-562 leukemia
[9] = test system: HCT-15 colon
[10] = test system: SR leukemia

| Compound | TGI [1] [µM] | TGI [2] [µM] | TGI [3] [µM] | TGI [4] [µM] | TGI [5] [µM] | TGI [6] [µM] | TGI [7] [µM] | TGI [8] [µM] | TGI [9] [µM] | TGI [10] [µM] | GI50 [1] [µM] | GI50 [2] [µM] | GI50 [3] [µM] | GI50 [4] [µM] | GI50 [6] [µM] | GI50 [7] [µM] |
| --- | --- | --- | --- | --- | --- | --- | --- | --- | --- | --- | --- | --- | --- | --- | --- | --- |
| CC12CC(C/C1=N/O)C(C)(C)C2 (stereo not given) | > 100 | > 100 | > 100 | > 100 | > 100 | > 100 | > 100 | > 100 |  |  |  |  |  |  |  |  |
| CNc1ccc(S(=O)Nc2ccccc2)cc1 (stereo not given) | > 100 | > 100 | > 100 |  | > 100 |  | > 100 | > 100 | > 100 | > 100 |  |  |  |  |  |  |
| O=C1CSC2(CC(/C=C/c3ccccc3Br)=NN2c2cccc(S(=O)(=O)O)c2)N1c1nc2ccccc2s1 (stereo not given) | > 100 | > 100 |  | > 100 | > 100 | > 100 | > 100 | > 100 | > 100 | > 100 |  |  |  |  |  |  |
| CC(C)(C)c1ccc(-c2nnc(-c3cc(C#N)cc(-c4nnc(-c5ccc(C(C)(C)C)cc5)o4)c3)o2)cc1 | > 100 | > 100 | > 100 | 96.9 | > 100 | > 100 | > 100 | > 100 | > 100 |  |  |  |  |  |  |  |
| CC(=O)c1ccc(NC(=O)CSc2nc(C)nc3c2sc(=S)n3-c2ccccc2)cc1 | > 3.16 | > 3.16 | > 3.16 | > 3.16 | > 3.16 |  | > 3.16 | > 10 | > 3.16 | > 3.16 |  |  |  |  |  |  |
| N#CCCC1(CCC#N)CCCCCCC(CCC#N)(CCC#N)C(O)C1O (stereo not given) | > 100 | > 100 | > 100 | > 100 |  | > 100 | > 100 | > 100 | > 100 | > 100 |  |  |  |  |  |  |
| CC12CC(c3ccccc3O1)C(C(=O)Nc1cccc(F)c1)C(=O)N2 (stereo not given) | > 100 | > 100 | > 100 |  | > 100 | > 100 | > 100 | > 100 | > 100 | > 100 |  |  |  |  |  |  |
| CC1(C)COC(c2c(-c3ccccc3)noc2CS(=O)c2ccccc2)=N1 (stereo not given) | > 100 | > 100 | > 100 | > 100 | > 100 |  | > 100 | > 100 | > 100 | > 100 |  |  |  |  |  |  |
| COC(=O)C(C(=O)C(=O)NC1Nc2ccc(C)cc2S1)c1nc2ccc(Cl)cc2[nH]c1=O (stereo not given) | > 100 | > 100 | > 100 | > 100 |  | > 100 | > 100 | > 100 | > 100 |  |  |  |  |  |  |  |
| CCCCCCOc1ccc(C(=N)N(CCCC)CCCC)c2ccccc12 | 3.09 | 3.31 | 2.98 | 2.74 |  | 3.05 | 3.03 |  |  |  | 1.61 | 1.76 | 1.49 | 1.28 | 1.53 | 1.59 |
| CC(=O)Nc1ccc(C(=O)N2N=C(C)/C(=C/c3ccc(O)cc3)C2=O)cc1 | > 100 | > 100 | > 100 |  | > 100 |  | > 100 | > 100 | > 100 | > 100 |  |  |  |  |  |  |
| OC12CCCCCC1(N1CCOCC1)c1ccccc12 (stereo not given) | > 100 | > 100 | > 100 | > 100 | > 100 |  | > 100 | > 100 | > 100 |  |  |  |  |  |  |  |
| COC1=CC(=O)C2=C(C1=O)[C@H]1CC[C@]3(C)[C@@H](OC(C)=O)CC[C@H]3[C@@H]1CC2 | > 100 | > 100 | > 100 | > 100 | > 100 | > 100 |  | > 100 | > 100 | > 100 |  |  |  |  |  |  |
| COC(=O)CC(NC(=O)OCc1ccccc1)C(C(=O)OCc1ccccc1)C1(C)OCCO1 (stereo not given) |  | > 100 | > 100 | > 100 | > 100 |  | > 100 | > 100 | > 100 | 58.2 |  |  |  |  |  |  |
| CCOc1ccc(-c2oc(/C=N/NS(=O)(=O)c3ccc(C)cc3)c([N+](=O)[O-])c2-c2ccc(OCC)cc2)cc1 | 25.3 | 65.6 | 43.3 | 29.3 | 8.04 |  | 31.1 | > 56.3 | 18.4 |  |  |  |  |  |  |  |
| CCOC(=O)c1nc2ccccc2nc1NCc1ccc(Cl)cc1Cl | > 100 | > 100 | > 100 | > 100 | > 100 | > 100 |  | > 100 | > 100 | > 100 |  |  |  |  |  |  |
| Cc1cc(=O)[nH]c(NNC(C#N)c2ccc([N+](=O)[O-])cc2)n1 (stereo not given) | > 100 | > 100 | > 100 | > 100 | > 100 |  |  | > 100 | > 100 | > 100 |  |  |  |  |  |  |
| CCOC1=C2NC(Cc3ccc(F)cc3)=NC2C(=O)c2ccccc21 (stereo not given) | > 100 |  | > 100 | 73.5 | 61.8 |  | > 100 | > 100 |  |  |  |  |  |  |  |  |
| Nc1c(N=Nc2ccc(-c3ccc(N=Nc4c(O)ccc5cc(S(=O)(=O)O)cc(S(=O)(=O)O)c45)cc3)cc2)c(S(=O)(=O)O)cc2cc(S(=O)(=O)O)c(N=Nc3ccccc3)c(O)c12 | > 100 | > 100 | > 100 | > 100 | > 100 |  | > 100 | > 100 | > 100 |  |  |  |  |  |  |  |
| CCOC(=O)C1CCCCc2sc(N)c(C#N)c21 (stereo not given) | > 100 | > 100 |  | > 100 |  | > 100 | > 100 | > 100 | > 100 | > 100 |  |  |  |  |  |  |
| CC(C)CCCC(C)[C@H]1CC[C@H]2N=C(Nc3ccccc3)CCC[C@]12C (stereo not given in full) | > 100 | 14.5 | 6.8 | 2.98 | 25.3 | > 100 |  | 3.55 | 4.68 | 4.33 |  |  |  |  |  |  |
| COc1cccc(CN(C(=O)/C=C\Sc2ccccc2)C(C)(C)C)c1 | > 100 | > 100 | > 100 |  | > 100 | > 100 | > 100 |  | > 100 |  |  |  |  |  |  |  |
| O=[N+]([O-])/C=C/c1cn(CCCCCn2cc(/C=C/[N+](=O)[O-])c3ccccc32)c2ccccc12 | 3.94 | 11.7 | 4.66 | 1.35 |  | 15 | 2.8 | 3.7 | 8.67 | > 100 |  |  |  |  |  |  |
